According to patent US10577382B2, “Fused heterocyclic compound” (TAKEDA PHARMACEUTICAL COMPANY LIMITED, priority 2016, dated 2020):

Assays:
[1] = tested on: MDM4 transcription product (MDM4 FL / MDM4 S); assay: In vitro MDM4 alternative splicing ratio in HCT116 cells (quantitative PCR); assay type: cell-based, human; conditions: 300 nM, 6 hours, PSI = MDM4 FL/(MDM4 FL + MDM4 S) x 100, Control (DMSO) 75.75
Procedure: 1000 μl (20,0000 cells/well) of a cell suspension of human colon adenocarcinoma cells HCT116 (purchased from ATCC) was seeded in a 12-well plate, and cultured at 37° C. for 1 day in a 5% CO2 gas incubator. The test compound solution was added to a final concentration of 300 nM, and the mixture was cultured for 6 hours. The plate was washed with PBS, the cells were then dissolved using RNeasy Mini Kit (QIAGEN), and RNA was extracted. Using cDNA after reverse transcription reaction, the number of copies of the MDM4 transcription product containing exon 6 (MDM4 FL) and the MDM4 transcription product in which exon 6 was skipped (MDM4 S) was measured by quantitative PCR. Primers with the following sequences were used for the measurement.
Primers with the following sequences were used for the measurement.
The following oligos were used for preparing a calibration curve.
A change in MDM4 alternative splicing ratio (PSI) is calculated in accordance with the following expression, and changes caused by the test compound are shown in Table 8. PSI=(number of copies of MDM4 FL÷(number of copies of MDM4 FL+number of copies of MDM4 S))×100

p21 protein = assay: p21 induction activity in HCT116 cells (western blot); assay type: cell-based, human; conditions: 300 nM, 16 hours, relative to control group
Procedure: (§1) 1000 μl (8,0000 cells/well) of a cell suspension of human colon adenocarcinoma cells HCT116 (purchased from ATCC) was seeded in a 12-well plate, and cultured at 37° C. for 2 days in a 5% CO2 gas incubator. The test compound solution was added to a final concentration of 300 nM, and the mixture was cultured for 16 hours. The plate was washed with PBS, a protein extract (10% glycerol, 1% sodium dodecyl sulfate, 62.5 mM Tris-HCl (pH: 7.5)) was then added to dissolve the cells, and the solution was treated at 95° C. for 5 minutes. Thereafter, the amount of protein was determined using BCA Protein Assay Kit (Thermo Fisher Scientific).
(§2) The amount of the protein in each sample was adjusted, SDS-PAGE was then performed, and the protein was transferred to a PVDF membrane using an iBlot (registered trademark) gel transfer system (Invitrogen). […] The membrane was washed in the same procedure as described above, a phosphorylated CLK2 protein, a MDM4 protein, a p53 protein and a p21 protein each labeled with an antibody were then made chemiluminescent using ImmunoStar ZETA (Wako Pure Chemical Industries, Ltd.), and luminescence was detected with LAS-3000 Image Analyzer (Fujifilm Corporation). The luminescence intensity was determined using Multi Gauge Ver. 3.1 (Fujifilm Corporation), and quantified. […]

[2] = molecular target: T1, phosphorylated CLK2 protein (Ser98) (Homo sapiens, UniProt P49760); assay: In vitro CLK2 phosphorylation inhibitory action in HCT116 cells (western blot); assay type: cell-based; conditions: 300 nM, 16 hours, relative to control group
T1 construct: endogenous in cells; host or cells: HCT116 (ATCC)
Procedure: as §1, §2

SK-MEL-28-MYC cells = assay: Growth inhibitory action on MYC-induced SK-MEL-28-MYC cells (CellTiter-Glo); assay type: cell-based, human; conditions: 125 nM, 3 days
Text: Human MYC cDNA was inserted downstream of the TRE of a lentiviral vector (modified pTRIPZ: GE Healthcare) having a tetracycline responsive sequence (TRE) in the promoter region. The produced virus was infected with human malignant melanoma cells SK-MEL-28 (purchased from ATCC) to establish SK-MEL-28 cells (SK-MEL-28-MYC) inducing expression of MYC in the presence of doxycycline (Takara Bio Inc.) which is a tetracycline derivative. SK-MEL-28 cells (SK-MEL-28-Control) having an empty vector with only modified pTRIPZ were also established. 20 μL/well of 2.5 μg/mL doxycycline-containing medium was added to a 96-well plate, and 80 μl/well (1,000 cells/well) of a cell suspension was added, and cultured at 37° C. for 2 days in a 5% CO2 gas incubator. Thereafter, 100 μl of a 250 nM test compound solution was added (final concentration: 125 nM), and the mixture was further cultured for 3 days. 50 µl/well of a CellTiter-Glo™ Luminescent Cell Viability Assay reagent (Promega Corporation) was added to a 96-well plate, the amount of luminescence was measured by a luminometer, and the amount of remaining ATP was determined as a cell amount. The inhibition ratio (%) of cell growth by the test compound was calculated in accordance with the following expression. Inhibition ratio (%)=(1−(amount of luminescence of test compound)÷(amount of luminescence of control group))×100

p53 protein = assay: p53 induction activity in HCT116 cells (western blot); assay type: cell-based, human; conditions: 300 nM, 16 hours, relative to control group
Procedure: as §1, §2

T1 sequence (P49760 whole entry): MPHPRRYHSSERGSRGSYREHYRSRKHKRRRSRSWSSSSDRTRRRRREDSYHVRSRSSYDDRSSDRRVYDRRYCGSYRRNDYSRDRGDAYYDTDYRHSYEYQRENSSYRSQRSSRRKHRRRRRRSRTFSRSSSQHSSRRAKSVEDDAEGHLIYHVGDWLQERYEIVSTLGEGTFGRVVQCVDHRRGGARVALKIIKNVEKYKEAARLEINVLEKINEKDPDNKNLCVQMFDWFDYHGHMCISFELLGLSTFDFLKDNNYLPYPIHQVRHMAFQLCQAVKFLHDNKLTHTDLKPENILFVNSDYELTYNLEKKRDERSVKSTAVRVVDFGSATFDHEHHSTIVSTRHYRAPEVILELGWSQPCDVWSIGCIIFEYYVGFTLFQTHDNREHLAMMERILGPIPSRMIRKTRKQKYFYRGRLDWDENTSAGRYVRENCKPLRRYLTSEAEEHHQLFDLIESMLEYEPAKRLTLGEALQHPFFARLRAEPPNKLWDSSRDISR

Residual ratio (phosphorylated CLK2) [2]: 71.4%
SMILES: COc1ncnn2ccc(-c3cnc4nc(C)n(Cc5nnc([C@@H](C)F)o5)c4c3)c12 [Example 286, 1-((5-((1R)-1-fluoroethyl)-1,3,4-oxadiazol-2-yl)methyl)-6-(4-methoxypyrrolo[2,1-f][1,2,4]triazin-5-yl)-2-methyl-1H-imidazo[4,5-b]pyridine]
PSI (MDM4 alternative splicing ratio) [1]: 45.81 | Increase ratio (p21) (p21 protein): 556.4% | Inhibition ratio (%) of cell growth, Doxycycline (+) (SK-MEL-28-MYC cells; Doxycycline (+), MYC induced): 69.3% | Inhibition ratio (%) of cell growth, Doxycycline (−) (SK-MEL-28-MYC cells; Doxycycline (−)): 24.7% | Increase ratio (p53) (p53 protein): 620.7%
